From patent US6680282B2 (priority 1997, dated 2004)

What was measured:
Pyricularia oryzae [1] = experiment: whole plant or invertebrate; type: in vivo; conditions: 100 ppm spray, rice seedling (Jikkoku) 4-leaf stage, lesion number on fourth leaf 6 days after inoculation
Sphaerotheca fuliginea = experiment: Test for control effect against powdery mildew of Cucurbitaceae (spray on cucumber seedlings); type: in vivo; conditions: 200 ppm spray, cucumber first foliage leaf, 10 days after inoculation
Text: Test for Control Effect Against Powdery Mildew of Cucurbitaceae
A spray liquid comprising a test compound whose concentration was adjusted to be 200 ppm by dilution with water was sprayed to a cucumber grown in a vinyl pot of 3 cm in diameter when its first foliage leaf was developed. The air-dried cucumber seedling was inoculated with a conidium suspension of Sphaerotheca fuliginea. Thereafter, the cucumber seedling was transferred in an air-conditioned greenhouse. 10 Days after the inoculation, the disease severity was observed. The protective value was calculated by comparing the disease severity in a treated area with that in an untreated area. Then, control effect was ranked according to the following criterion.
B; protective value 50 to 79%

Pyricularia oryzae [2] = type: cell-based; conditions: 100 ppm in potato dextrose agar, 28 or 22° C., 48 hours
Cochlioborus miyabeanus = type: cell-based; conditions: 100 ppm in potato dextrose agar, 28 or 22° C., 48 hours
[3] = test system: Alternaria alternata Japanese pear pathotype; type: cell-based; conditions: 100 ppm in potato dextrose agar, 28 or 22° C., 48 hours
Protocol: (§1) Test for Antifungal Activity
(§2) A test compound dissolved in acetone was mixed in a potato dextrose agar medium (manufactured by Nissui Seiyaku K. K.) so that the final concentration of the test compound was 100 ppm and then poured in a Petri dish. To this Perti dish after the agar was completely solidified, a cylindrical section prepared by punching a mycelial colony of each of plant pathogenic fungi cultured in another Petri dish by means of a cork borer was inoculated and cultured at 28 or 22° C. 48 Hours after the inoculation, the diameter of the mycelial colony was determined. Control percentages were calculated by comparing the diameter of the mycelial colony in a treated area with that in an untreated area. And, antifungal effect was ranked according to the following criterion.
(§3) A; control percentage ≧80%
(§4) B; control percentage 50 to 79%
(§5) C; control percentage <50%

Botrytis cinerea = type: cell-based; conditions: 100 ppm in potato dextrose agar, 28 or 22° C., 48 hours
Protocol: as §1, §2, §3, §4, §5

[4] = test system: Colletotrichum atramentarium; type: cell-based; conditions: 100 ppm in potato dextrose agar, 28 or 22° C., 48 hours
Protocol: as §1, §2, §3, §4, §5

[5] = test system: Fusarium oxysporum f. sp. lycopersici; type: cell-based; conditions: 100 ppm in potato dextrose agar, 28 or 22° C., 48 hours
Protocol: as §1, §2, §3, §4, §5

Gibberella fujikuroi = type: cell-based; conditions: 100 ppm in potato dextrose agar, 28 or 22° C., 48 hours
Protocol: as §1, §2, §3, §4, §5

Glomerella cingalata = type: cell-based; conditions: 100 ppm in potato dextrose agar, 28 or 22° C., 48 hours
Protocol: as §1, §2, §3, §4, §5

Rhizoctonia solani = type: cell-based; conditions: 100 ppm in potato dextrose agar, 28 or 22° C., 48 hours
Protocol: as §1, §2, §3, §4, §5

Sclerotinia minor = type: cell-based; conditions: 100 ppm in potato dextrose agar, 28 or 22° C., 48 hours
Protocol: as §1, §2, §3, §4, §5

Verticillium aibo-atrum = type: cell-based; conditions: 100 ppm in potato dextrose agar, 28 or 22° C., 48 hours
Protocol: as §1, §2, §3, §4, §5

SMILES	rank (control effect, protective value from lesion number) (Pyricularia oryzae [1])	rank (control effect, protective value from disease severity) (Sphaerotheca fuliginea)	rank (antifungal effect, control percentage of mycelial colony diameter) (Pyricularia oryzae [2])	rank (antifungal effect, control percentage of mycelial colony diameter) (Cochlioborus miyabeanus)	rank (antifungal effect, control percentage of mycelial colony diameter) [3]	rank (antifungal effect, control percentage of mycelial colony diameter) (Botrytis cinerea)	rank (antifungal effect, control percentage of mycelial colony diameter) [4]	rank (antifungal effect, control percentage of mycelial colony diameter) [5]	rank (antifungal effect, control percentage of mycelial colony diameter) (Gibberella fujikuroi)	rank (antifungal effect, control percentage of mycelial colony diameter) (Glomerella cingalata)	rank (antifungal effect, control percentage of mycelial colony diameter) (Rhizoctonia solani)	rank (antifungal effect, control percentage of mycelial colony diameter) (Sclerotinia minor)	rank (antifungal effect, control percentage of mycelial colony diameter) (Verticillium aibo-atrum)
CCCCc1ccc2nc(C)c(C)c(OC(C)=O)c2c1 [Compound No. 29]	A (protective value ≧80%)	B (protective value 50 to 79%)	A (control percentage ≧80%)	B (control percentage 50 to 79%)	C (control percentage <50%)	B (control percentage 50 to 79%)	B (control percentage 50 to 79%)	B (control percentage 50 to 79%)	B (control percentage 50 to 79%)	A (control percentage ≧80%)	C (control percentage <50%)	C (control percentage <50%)	A (control percentage ≧80%)
CCc1ccc2nc(C)c(C)c(OC(C)=O)c2c1 [Compound No. 10]	A (protective value ≧80%)		A (control percentage ≧80%)	B (control percentage 50 to 79%)	C (control percentage <50%)	C (control percentage <50%)	B (control percentage 50 to 79%)	C (control percentage <50%)	C (control percentage <50%)	B (control percentage 50 to 79%)	C (control percentage <50%)	C (control percentage <50%)	C (control percentage <50%)
